Measurements taken from BindingDB's records for doi:10.1038/nchembio.211 (Praecis Pharmaceuticals, 2009).
Where a chain is given by its changes, count along the chain named.

Tests used:
Settings in all cases: pH 9.5; 16 °C
[1] = molecular target: T1, Aurora kinase A (Homo sapiens, UniProt O14965); assay: Aurora A Inhibition Assay
T1 sequence (O14965 whole entry): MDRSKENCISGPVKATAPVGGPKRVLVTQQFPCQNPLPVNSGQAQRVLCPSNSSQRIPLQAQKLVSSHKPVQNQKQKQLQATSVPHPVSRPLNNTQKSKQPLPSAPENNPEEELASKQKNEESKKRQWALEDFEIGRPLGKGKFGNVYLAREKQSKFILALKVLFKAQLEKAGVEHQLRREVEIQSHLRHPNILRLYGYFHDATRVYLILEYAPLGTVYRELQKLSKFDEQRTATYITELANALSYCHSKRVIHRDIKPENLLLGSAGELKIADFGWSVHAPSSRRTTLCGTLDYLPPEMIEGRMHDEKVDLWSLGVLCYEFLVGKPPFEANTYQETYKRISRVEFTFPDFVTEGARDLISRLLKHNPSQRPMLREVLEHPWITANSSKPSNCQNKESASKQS
From the text: (§1) Selection of DNA-encoded libraries (DELs) which are covalent attachment of encoding double stranded DNA to small-molecule created using a combination of enzymatic and chemical synthesis in a split-and-pool format against Aurora A kinase

[2] = molecular target: Mitogen-activated protein kinase 14 (Homo sapiens, UniProt Q16539); assay: MAPK p38 Inhibition Assay
Chain of Mitogen-activated protein kinase 14 (Q16539 whole entry): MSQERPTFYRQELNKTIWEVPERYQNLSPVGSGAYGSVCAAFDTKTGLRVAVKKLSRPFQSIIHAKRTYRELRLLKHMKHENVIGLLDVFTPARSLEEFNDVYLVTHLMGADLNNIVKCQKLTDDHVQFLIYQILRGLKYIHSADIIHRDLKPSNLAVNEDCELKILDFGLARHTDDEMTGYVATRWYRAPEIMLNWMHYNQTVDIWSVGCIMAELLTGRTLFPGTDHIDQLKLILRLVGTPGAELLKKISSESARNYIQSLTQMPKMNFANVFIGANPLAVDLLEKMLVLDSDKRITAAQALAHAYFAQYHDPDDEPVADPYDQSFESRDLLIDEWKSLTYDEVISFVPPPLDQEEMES
From the text: Selection of DNA-encoded libraries (DELs), which are covalent attachment of encoding double stranded DNA to small-molecule created using a combination of enzymatic and chemical synthesis in a split-and-pool format against p38 mitogen-activated protein kinase

[3] = molecular target: T2, Aurora kinase A (Homo sapiens, UniProt O14965); assay: Aurora A Inhibition Assay; remark: listed apart in the source
T2 sequence (O14965 whole entry): T1 sequence (O14965 whole entry) with I57V
From the text: as §1

An IC50 [1] of 6.3 µM was found for `COc1ccccc1CCNc1nc(NC(Cc2c[nH]c3ncccc23)C(N)=O)nc(N(C)[C@@H](C)c2ccccc2)n1` (stereo partly drawn) [2-(4-(2-Methoxyphenethylamino)-6-(methyl((S)-1-phenylethyl)amino)-1,3,5-triazin-2-ylamino)-3-(1H-pyrrolo[2,3-b]pyridin-3-yl)propanamide] in this work.
An IC50 [1] of 3.7 µM was found for `COc1ccccc1CCNc1nc(Nc2ccc3ncccc3c2)nc(NC(Cc2c[nH]c3ncccc23)C(N)=O)n1` (stereo unspecified) [2-(4-(2-Methoxyphenethylamino)-6-(quinolin-6-ylamino)-1,3,5-triazin-2-ylamino)-3-(1H-pyrrolo[2,3-b]pyridin-3-yl)propanamide] in this work.
An IC50 [1] of 3.8 µM was found for `CCCCN(C)c1nc(NCCc2ccccc2OC)nc(NC(Cc2c[nH]c3ncccc23)C(N)=O)n1` (stereo unspecified) [2-(4-(Butyl(methyl)amino)-6-(2-methoxyphenethylamino)-1,3,5-triazin-2-ylamino)-3-(1H-pyrrolo[2,3-b]pyridin-3-yl)propanamide] in this work.
An EC50 [2] of 0.25 µM was found for `CNC(=O)[C@H](Cc1ccc2c(c1)COC(C)(C)O2)Nc1nc(NCC(C)C)nc(-n2cnc3cc(C(=O)N4CCCc5ccccc54)ccc32)n1` [(S)-3-(2,2-Dimethyl-4H-benzo[d][1,3]dioxin-6-yl)-2-(4-(isobutylamino)-6-(5-(1,2,3,4-tetrahydroquinoline-1-carbonyl)-1H-benzo[d]imidazol-1-yl)-1,3,5-triazin-2-ylamino)-N-methylpropanamide] in this work.
An IC50 [3] of 5.1 µM was found for `CNc1nc(NCCc2ccccc2OC)nc(Nc2ccc3ncccc3c2)n1` [DEL-A, 12] in this work.
An IC50 [1] of 1.2 µM was found for `CCCCN(C)c1nc(NCCc2ccccc2OC)nc(NCCc2c[nH]c3ncccc23)n1` [N2-(2-(1H-Pyrrolo[2,3-b]pyridin-3-yl)ethyl)-N4-butyl-N6-(2-methoxyphenethyl)-N4-methyl-1,3,5-triazine-2,4,6-triamine] in this work.
